Patent US11292770B2, “Pyridazinone herbicides” (FMC Corporation, priority 2017, dated 2022)

Assays:
Type in all cases: in vivo
[1] = test system: kochia (Kochia scoparia); assay: Test A preemergence, kochia; details: 0 to 100 scale
Text: (§1) Seeds of plant species selected from barnyardgrass (Echinochloa crus-galli), kochia (Kochia scoparia), ragweed (common ragweed, Ambrosia elation), ryegrass, Italian (Italian ryegrass, Lolium multiflorum), foxtail, green (green foxtail, Setaria viridis), and pigweed (Amaranthus retroflexus) were planted into a blend of loam soil and sand and treated preemergence with a directed soil spray using test chemicals formulated in a non-phytotoxic solvent mixture which included a surfactant. At the same time, plants selected from these weed species and also wheat (Triticum aestivum), corn (Zea mays), blackgrass (Alopecurus myosuroides), and galium (catchweed bedstraw, Galium aparine) were planted in pots containing the same blend of loam soil and sand and treated with postemergence applications of test chemicals formulated in the same manner Plants ranged in height from 2 to 10 cm and were in the one- to two-leaf stage for the postemergence treatment. Treated plants and untreated controls were maintained in a greenhouse for approximately 10 d, after which time all treated plants were compared to untreated controls and visually evaluated for injury. Plant response ratings, summarized in Table A, are based on a 0 to 100 scale where 0 is no effect and 100 is complete control. A dash (—) response means no test result.

[2] = test system: ducksalad (Heteranthera limosa); assay: Test B flooded paddy test, ducksalad; details: Flood, 250 g ai/ha; scale of 0 to 100
Description: (§2) Plant species in the flooded paddy test selected from rice (Oryza sativa), sedge, umbrella (small-flower umbrella sedge, Cyperus difformis), ducksalad (Heteranthera limosa), and barnyardgrass (Echinochloa crus-galli) were grown to the 2-leaf stage for testing. At the time of treatment, test pots were flooded to 3 cm above the soil surface, treated by application of test compounds directly to the paddy water, and then maintained at that water depth for the duration of the test. Treated plants and controls were maintained in a greenhouse for 13 to 15 d, after which time all species were compared to controls and visually evaluated. Plant response ratings, summarized in Table B, are based on a scale of 0 to 100 where 0 is no effect and 100 is complete control. A dash (—) response means no test result.

[3] = test system: ragweed (common ragweed, Ambrosia elation); assay: Test A preemergence, ragweed; details: 0 to 100 scale
Text: as §1

[4] = test system: blackgrass (Alopecurus myosuroides); assay: Test A postemergence, blackgrass; details: 0 to 100 scale
Text: as §1

[5] = test system: ragweed (common ragweed, Ambrosia elation); assay: Test A postemergence, ragweed; details: 0 to 100 scale
Text: as §1

[6] = test system: rice (Oryza sativa); assay: Test B flooded paddy test, rice; details: Flood, 250 g ai/ha; scale of 0 to 100
Description: as §2

[7] = test system: Foxtail, Giant; assay: Test A preemergence, foxtail, giant; details: 0 to 100 scale
[8] = test system: Foxtail, Giant; assay: Test A postemergence, foxtail, giant; details: 0 to 100 scale
[9] = test system: barnyardgrass (Echinochloa crus-galli); assay: Test B flooded paddy test, barnyardgrass; details: Flood, 250 g ai/ha; scale of 0 to 100, 0 no effect, 100 complete control
Description: as §2

[10] = test system: ryegrass, Italian (Italian ryegrass, Lolium multiflorum); assay: Test A postemergence, ryegrass, Italian; details: 0 to 100 scale
Text: as §1

[11] = test system: barnyardgrass (Echinochloa crus-galli); assay: Test A preemergence, barnyardgrass; details: 0 to 100 scale
Text: as §1

[12] = test system: galium (catchweed bedstraw, Galium aparine); assay: Test A postemergence, galium; details: 0 to 100 scale
Text: as §1

[13] = test system: ryegrass, Italian (Italian ryegrass, Lolium multiflorum); assay: Test A preemergence, ryegrass, Italian; details: 0 to 100 scale
Text: as §1

[14] = test system: barnyardgrass (Echinochloa crus-galli); assay: Test A postemergence, barnyardgrass; details: 0 to 100 scale
Text: as §1

[15] = test system: sedge, umbrella (small-flower umbrella sedge, Cyperus difformis); assay: Test B flooded paddy test, sedge, umbrella; details: Flood, 250 g ai/ha; scale of 0 to 100
Description: as §2

[16] = test system: kochia (Kochia scoparia); assay: Test A postemergence, kochia; details: 0 to 100 scale
Text: as §1

[17] = test system: wheat (Triticum aestivum); assay: Test A postemergence, wheat; details: 0 to 100 scale
Text: as §1

[18] = test system: corn (Zea mays); assay: Test A postemergence, corn; details: 0 to 100 scale
Text: as §1

[19] = test system: pigweed (Amaranthus retroflexus); assay: Test A postemergence, pigweed; details: 0 to 100 scale
Text: as §1

[20] = test system: pigweed (Amaranthus retroflexus); assay: Test A preemergence, pigweed; details: 0 to 100 scale
Text: as §1

Cc1nn(C)c(=O)c(-c2c3ccccc3cc3ccccc23)c1O [Compound 8]
Plant response rating, Kochia ([1]; 31 g ai/ha): 0
Plant response rating, Kochia ([1]; 125 g ai/ha): 0
Plant response rating, Ducksalad [2]: 90
Plant response rating, Ragweed ([3]; 31 g ai/ha): 40
Plant response rating, Ragweed ([3]; 125 g ai/ha): 90
Plant response rating, Blackgrass ([4]; 31 g ai/ha): 0
Plant response rating, Blackgrass ([4]; 125 g ai/ha): 30
Plant response rating, Ragweed ([5]; 31 g ai/ha): 90
Plant response rating, Ragweed ([5]; 125 g ai/ha): 90
Plant response rating, Rice [6]: 15
Plant response rating, Foxtail, Giant ([7]; 31 g ai/ha): 0
Plant response rating, Foxtail, Giant ([7]; 125 g ai/ha): 10
Plant response rating, Foxtail, Giant ([8]; 31 g ai/ha): 10
Plant response rating, Foxtail, Giant ([8]; 125 g ai/ha): 60
Plant response rating, Barnyardgrass [9]: 15
Plant response rating, Ryegrass, Italian ([10]; 31 g ai/ha): 90
Plant response rating, Ryegrass, Italian ([10]; 125 g ai/ha): 100
Plant response rating, Barnyardgrass ([11]; 31 g ai/ha): 0
Plant response rating, Barnyardgrass ([11]; 125 g ai/ha): 10
Plant response rating, Galium ([12]; 31 g ai/ha): 80
Plant response rating, Galium ([12]; 125 g ai/ha): 90
Plant response rating, Ryegrass, Italian ([13]; 31 g ai/ha): 10
Plant response rating, Ryegrass, Italian ([13]; 125 g ai/ha): 50
Plant response rating, Barnyardgrass ([14]; 31 g ai/ha): 10
Plant response rating, Barnyardgrass ([14]; 125 g ai/ha, 0 no effect, 100 complete control): 50
Plant response rating, Sedge, Umbrella [15]: 90
Plant response rating, Kochia ([16]; 31 g ai/ha): 0
Plant response rating, Kochia ([16]; 125 g ai/ha): 10
Plant response rating, Wheat ([17]; 31 g ai/ha): 0
Plant response rating, Wheat ([17]; 125 g ai/ha): 0
Plant response rating, Corn ([18]; 31 g ai/ha): 10
Plant response rating, Corn ([18]; 125 g ai/ha): 10
Plant response rating, Pigweed ([19]; 31 g ai/ha): 90
Plant response rating, Pigweed ([19]; 125 g ai/ha): 100
Plant response rating, Pigweed ([20]; 31 g ai/ha): 100
Plant response rating, Pigweed ([20]; 125 g ai/ha): 100
